Several values for one entry are separate records, joined by “and”; a condition that tells them apart may be missing. Equal values may be shown once. Read-outs that look alike come from different tables or passages of the source.
How the values were obtained:
[1] = tested on: P. falciparum (strain 3D7); assay: 72 h 3H-hypoxanthine incorporation assay, asexual blood stages; assay type: cell-based, Plasmodium falciparum
[2] = cytotoxicity on HeLa cells; assay type: cell-based; settings: human, HeLa cells
Method in brief: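 K-562 and HeLa seeded at ∼10,000 cells/well; HeLa preincubated 48 h without compound before cytotoxicity testing. 72 h exposure at 37 °C, 5% CO2; K-562 counted by electronic cell analyzer, HUVEC and HeLa glutaraldehyde-fixed, methylene blue-stained, OD 660 nm; GI50 (antiproliferative) and CC50 (cytotoxicity) derived.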

[3] = tested on: P. falciparum strain Dd2; assay: 72 h 3H-hypoxanthine incorporation assay, chloroquine-resistant strain; assay type: cell-based; settings: Plasmodium falciparum
[4] = molecular target: haem (FeIIIPPIX, π-π dimer); assay: spectrophotometric titration of haematin π-π dimer; assay type: binding; settings: absorption spectrophotometric titration, pH 7.5; read-out: Dissociation Constant KD of haematin-drug complex
[5] = tested on: Aspergillus fumigatus JMRC:Afum:00073; assay: spore inhibition test; assay type: cell-based; settings: 48 h; start concentration 1 mg/ml (1o, 2o), 100 µg/ml (Amphotericin B)
Method: (§1) The following test organisms were used for their susceptibility to compounds 1o and 2o: Alternaria alternata JMRC:SF:09317, Arthroderma benhamiae JMRC:ST:35888, Aspergillus fumigatus JMRC:Afum:00073=ATCC 46645, Aspergillus terreus JMRC:SF:06307, Candida albicans JMRC:ST:35864, Lichtheimia corymbifera JMRC:SF:09682, Penicillium chrysogenum JMRC:SF:10137, Rhizopus arrhizus (syn. R. oryzae) JMRC:SF:05857=ATCC 56536, CBS 112.07.
(§2) Fungi were grown on 3% malt extract solidified medium for 1 to 2 weeks at room temperature. Then the plates were washed with 7 ml sterile distilled water, and the spore suspension was filtered through 4 layers of sterile Miracloth (Kalbiochem, USA) to remove the hyphae. The concentration of the spore suspension was set to 2 × 10^4 conidia ml^−1 for the in vitro assays.
(§3) The spore inhibition assay took place in 96-well microplates (flat base). 50 μl of the prepared spore suspension was seeded and then mixed with 50 μl of the respective inhibitor substance. Tests were started with end concentrations of 1 mg ml^−1 and were then reduced in a minimum of 10 halving steps. Thus a 2 mg ml^−1 stock solution diluted in half ten times with solvent (distilled water, 2% DMSO in distilled water, or 2% DMF in distilled water) and each 50 μl was transferred to 50 μl spore suspension. For each test substance, 12 holes on the microtiter plate were filled. After 24 h incubation (25 °C), the germination of the spores was macroscopically and microscopically examined directly in the microtiter plate via measurement of the optical density and light microscopy using an inverse stereomicroscope with subsequent photodocumentation, respectively. If necessary, the plates were further incubated for another 24 or 48 h, depending on the extent of fungal germination.

[6] = tested on: Arthroderma benhamiae JMRC:ST:35888; assay: spore inhibition test; assay type: cell-based; settings: 72 h
Method: as §1, §2, §3

[7] = tested on: Rhizopus arrhizus (syn. R. oryzae) JMRC:SF:05857; assay: spore inhibition test; assay type: cell-based; settings: 48 h; start concentration 1 mg/ml (1o, 2o), 100 µg/ml (Amphotericin B)
Method: as §1, §2, §3

[8] = tested on: Lichtheimia corymbifera JMRC:SF:09682; assay: spore inhibition test; assay type: cell-based; settings: 48 h; start concentration 1 mg/ml (1o, 2o), 100 µg/ml (Amphotericin B)
Method: as §1, §2, §3

[9] = tested on: Penicillium chrysogenum JMRC:SF:10137; assay: spore inhibition test; assay type: cell-based; settings: 48 h
Method: as §1, §2, §3

[10] = tested on: Candida albicans JMRC:ST:35864; assay: spore inhibition test; assay type: cell-based; settings: 48 h
Method: as §1, §2, §3

[11] = tested on: Alternaria alternata JMRC:SF:09317; assay: spore inhibition test; assay type: cell-based; settings: 48 h; start concentration 1 mg/ml (1o, 2o), 100 µg/ml (Amphotericin B)
Method: as §1, §2, §3

[12] = tested on: Aspergillus terreus JMRC:SF:06307; assay: spore inhibition test; assay type: cell-based; settings: 48 h; start concentration 1 mg/ml (1o, 2o), 100 µg/ml (Amphotericin B)
Method: as §1, §2, §3

[13] = tested on: haem; assay: ESI-MS collision-induced dissociation of haem adducts; assay type: binding; settings: 50 µM haem and 50 µM substrate; for DV50 (dissociation voltage at 50%) of haem adduct: ESI-CID, 20 V to 400 V; for Bottom plateau (adduct remaining at 400 V): fragmentor voltage 400 V
Method in brief: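 Equimolar haem and substrate (50 µM each) in H2O/CH3CN 5/95 with 0.1% formic acid, analysed by positive-mode ESI-CID with fragmentor 20–400 V in 20 V steps. DV50 is the voltage giving 50% dissociation of [haematin-drug]+ adducts.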

[14] = pH 7.5
Method: Spectrophotometric titration of 1o or 2o by Cu(II) and Fe(III)
Typically, an aliquot of 250 µl (or 500 µl) of a stock solution (~ 0.89 mM) of 1o or 2o was
dissolved in 2.5 (or 2.0 ml) of a mixed solvent made of 0.2 M sodium hepes buffer at pH 7.5
and DMSO (1:1 v/v) in a 1 cm Hellma optical quartz cell. The absorption spectrophotometric
titrations were carried out by adding microvolumes of a stock solution of the metallic cation (5
mM for Cu(II) or 7.36 mM for Fe(III). Aliquots of 5 µl of the stock metal solution were
successively added to the reaction mixture, and after each addition a UV-visible absorption
spectrum (250 nm < λ < 800 nm) was recorded with an Agilent Cary 5000 spectrophotometer. Special care was taken to ensure that equilibrium was attained after
each addition of the substrate. The association constants KL.M (L = 1o, 2o and M = Fe(III) or
Cu(II)) and the stoichiometry of the species at equilibrium were determined by processing the
spectrophotometric data with the Specfit program. The uncertainties on the log K values are given as 3 with  = standard deviation.

[15] = Plasmodium falciparum, 3D7, 72 h 3H-hypoxanthine incorporation, asexual blood stages, read-out: Antiplasmodial activity IC50 Pf (3D7)
[16] = start concentration 1 mg/ml (1o, 2o), 100 µg/ml (Amphotericin B)
[17] = start concentration 1 mg/ml, given in mg

Compound: COc1ccc2c(c1)CCC1C2CC[C@@]2(C)C1CC[C@H]2NCc1cc2ccccc2cc1O (stereo partly drawn) [1o]
- IC50 ([1]; 72 h 3H-hypoxanthine incorporation, asexual blood stages, read-out: Antiplasmodial activity IC50 Pf (3D7)): 4.1 nM
- IC50 [1, 15]: ~5 nM
- IC50 ([1]; Plasmodium falciparum, 3D7, chloroquine-sensitive and resistant P. falciparum parasites, read-out: IC50 against intraerythrocytic stages): 1 to 5 nM
- CC50 at 72 h [2]: > 113000 nM
- IC50 [3]: 1 ± 0.9 nM
- Kd [4]: 3300 nM
- antifungal profile, 1st value = microscopic visualization-based observation, Aspergillus fumigatus [5]: 250
- antifungal profile, 2nd value = optical density-based observation, Aspergillus fumigatus [5]: 250
- antifungal profile, 1st value = microscopic visualization-based observation, Arthroderma benhamiae [6, 16]: 500
- antifungal profile, 2nd value = optical density-based observation, Arthroderma benhamiae [6, 17]: 1 mg
- antifungal profile, 1st value = microscopic visualization-based observation, Rhizopus arrhizus [7]: 500
- antifungal profile, 2nd value = optical density-based observation, Rhizopus arrhizus [7]: 500
- antifungal profile, 1st value = microscopic visualization-based observation, Lichtheimia corymbifera [8]: 500
- antifungal profile, 2nd value = optical density-based observation, Lichtheimia corymbifera [8]: 62.5
- antifungal profile, 2nd value = optical density-based observation, Penicillium chrysogenum [9, 16]: 125
- antifungal profile, 1st value = microscopic visualization-based observation, Penicillium chrysogenum [9, 17]: 1 mg
- antifungal profile, 2nd value = optical density-based observation, Candida albicans [10, 16]: 500
- antifungal profile, 1st value = microscopic visualization-based observation, Candida albicans [10, 17]: 1 mg
- antifungal profile, 1st value = microscopic visualization-based observation, Alternaria alternata [11]: 500
- antifungal profile, 2nd value = optical density-based observation, Alternaria alternata [11]: 250
- antifungal profile, 1st value = microscopic visualization-based observation, Aspergillus terreus [12]: 250
- antifungal profile, 2nd value = optical density-based observation, Aspergillus terreus [12]: 125
- DV50 (dissociation voltage at 50%) of haem adduct [13]: 290 V
- Bottom plateau (adduct remaining at 400 V) [13]: ~ 20% and 20%
- stability constants log KLM of 1:1 complexes [14]: 4.1-4.7

Compound: COc1ccc2c(c1)CCC1C2CC[C@@]2(C)C1CC[C@@H]2NCc1cc2ccccc2cc1O (stereo partly drawn) [2o]
- IC50 [1, 15]: 6.6 nM
- CC50 at 72 h [2]: > 113000 nM
- IC50 [3]: 2 ± 1.2 nM
- Kd [4]: 8300 nM
- antifungal profile, 1st value = microscopic visualization-based observation, Aspergillus fumigatus [5]: 250
- antifungal profile, 2nd value = optical density-based observation, Aspergillus fumigatus [5]: 125
- antifungal profile, 1st value = microscopic visualization-based observation, Arthroderma benhamiae [6, 16]: 31.2
- antifungal profile, 2nd value = optical density-based observation, Arthroderma benhamiae [6, 16]: 2
- antifungal profile, 1st value = microscopic visualization-based observation, Rhizopus arrhizus [7]: 500
- antifungal profile, 2nd value = optical density-based observation, Rhizopus arrhizus [7]: 500
- antifungal profile, 1st value = microscopic visualization-based observation, Lichtheimia corymbifera [8]: 62.5
- antifungal profile, 2nd value = optical density-based observation, Lichtheimia corymbifera [8]: 7.8
- antifungal profile, 1st value = microscopic visualization-based observation, Penicillium chrysogenum [9, 16]: 250
- antifungal profile, 2nd value = optical density-based observation, Penicillium chrysogenum [9, 16]: 125
- antifungal profile, 1st value = microscopic visualization-based observation, Candida albicans [10, 16]: 500
- antifungal profile, 2nd value = optical density-based observation, Candida albicans [10, 16]: 250
- antifungal profile, 1st value = microscopic visualization-based observation, Alternaria alternata [11]: 125
- antifungal profile, 2nd value = optical density-based observation, Alternaria alternata [11]: 15,6
- antifungal profile, 1st value = microscopic visualization-based observation, Aspergillus terreus [12]: 250
- antifungal profile, 2nd value = optical density-based observation, Aspergillus terreus [12]: 4
- DV50 (dissociation voltage at 50%) of haem adduct [13]: 280 V
- Bottom plateau (adduct remaining at 400 V) [13]: 21.7% and ~ 20%
- stability constants log KLM of 1:1 complexes [14]: 4.1-4.7

Source: PMC5321741, “Arylmethylamino steroids as antiparasitic agents” (Nature Communications, 2017)
